Measured values from ChEMBL document CHEMBL3886716, “Methods of modulating the activity of the MC5 receptor and treatment of conditions related to this receptor” (2016).

The compounds below were run against Melanocortin receptor 5 (Homo sapiens, UniProt P33032) (assay: Radioligand Binding Assay: Assessments of compound binding to human MC5R (hMC5R)) by displacement of an 125I-labeled NDP-MSH receptor ligand peptide were performed essentially as described in the data sheets produced by Perkin Elmer to accompany their frozen hMC5R membranes (Perkin Elmer catalog number RBXMC5M400UA). [125I] NDP-MSH: Radiolabeled in House and Purified by HPLC: Na125I (0.5 mCi, 17.4 Ci/mg) was added to 50 μL sodium phosphate (50 mM, pH 7.4) in an eppendorf tube precoated with IODOGEN. After incubation for 10 mins the phosphate buffer containing the iodine was added to NDP-MSH (10 μl at 1 mg/mL) in a separate eppendorf tube. This was incubated for a further 10 mins. The iodinated NDP-MSH was purified by HPLC on a Zorbax SB 300 column using solvent A: 0.05% TFA and solvent B: 90% acetonitrile 0.045% TFA with a linear gradient, 0-67% B over 60 mins. The 125I NDP-MSH eluted at 52 mins after the unlabeled starting material (48 min) and was counted and stored in the freezer. […] Incubation buffer: 25 mM HEPES-KOH (pH 7.0), 1.5 mM CaCl2, 1 mM MgSO4, 0.1 M NaCl, 1 mM 1,10-phenanthroline, and 1 Complete™ protease inhibitor tablet/100 mL (Roche, catalog number 1873580). Perkin Elmer frozen hMC5 membranes: catalog number RBXMC5M400UA, 0.4 mL/vial; 400 microassays/vial, 0.78 mg/mL protein concentration. Vials of frozen membranes were thawed rapidly immediately before use, diluted with binding buffer and vortexed. Resuspended membranes were kept on ice until they were added to the wells of the plate. Assays were performed in 96 well polypropylene plates. […] This was incubated for 1 hr at 37° C.).
Sequence of Melanocortin receptor 5 (P33032 whole entry): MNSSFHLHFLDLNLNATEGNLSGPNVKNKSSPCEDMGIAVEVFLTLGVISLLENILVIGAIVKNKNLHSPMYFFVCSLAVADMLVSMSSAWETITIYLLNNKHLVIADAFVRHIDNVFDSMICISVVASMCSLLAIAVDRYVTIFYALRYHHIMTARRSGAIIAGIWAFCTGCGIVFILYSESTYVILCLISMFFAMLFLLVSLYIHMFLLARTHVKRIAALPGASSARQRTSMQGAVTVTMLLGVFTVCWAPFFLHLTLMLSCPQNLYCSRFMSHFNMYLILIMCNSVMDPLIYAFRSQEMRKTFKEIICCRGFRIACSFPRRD

| Structure (SMILES) | IC50 |
| --- | --- |
| N=C(N)NCCC[C@@H]1N[C@H](CNC(=O)c2ccc3ccccc3c2)CCN(CCc2ccc(Cl)cc2Cl)C1=O | < 1000 nM |
| O=C(/C=C/c1ccc(Cl)cc1)NC[C@@H]1CCN(CC(c2ccccc2)c2ccccc2)C(=O)[C@H](CC2CCCCC2)N1 | < 1000 nM |
| N=C(N)NCCC[C@@H]1N[C@H](CNC(=O)c2ccc3ccccc3c2)CCN(CCc2ccc(Cl)c(Cl)c2)C1=O | < 10000 nM |
| N=C(N)NCCC[C@@H]1N[C@H](CNC(=O)c2ccc(Oc3ccccc3)cc2)CCN(CC(c2ccccc2)c2ccccc2)C1=O | < 1000 nM |

Further lines, results first:

| IC50 | Structure (SMILES) |
| --- | --- |
| < 100 nM | N=C(N)NCCC[C@@H]1N[C@H](CNC(=O)/C=C/c2ccc(Cl)cc2)CCN(CC(c2ccccc2)c2ccccc2)C1=O |
| < 100 nM | N=C(N)NCCC[C@@H]1N[C@H](CNC(=O)c2ccc3cc(O)ccc3c2)CCN(CC(c2ccccc2)c2ccccc2)C1=O |
| < 100 nM | N=C(N)NCCC[C@@H]1N[C@H](CNC(=O)c2cccc(Oc3ccccc3)c2)CCN(CC(c2ccccc2)c2ccccc2)C1=O |
